The target in experiment [1] is T1, Aβ1-40 (Homo sapiens, UniProt P05067). Description: biochemical. The conditions noted are these: read-out: % Inucl'n (percent reduction in maximum turbidity).
The target of experiment [2] is T1, Aβ1-40. The experiment is described as follows: Seeded extension assay (thioflavin T fluorescence). To be noted: Table V; 25 mole % inhibitor. Type of experiment: biochemical. More on the design: Natural β-AP (β-AP1-40) was obtained commercially from Bachem (Torrance, Calif.); purchased Bachem (Torrance, Calif.). How it is done:
The seeded extension assay can be employed to measure the rate of Aβ fiber formed in a solution of Aβ monomer following addition of polymeric Aβ fiber "seed". The ability of test compounds to prevent further deposition of monomeric Aβ to previously deposited amyloid is determined using a direct indicator of β-sheet formation using fluorescence. In contrast with the nucleation assay, the addition of seed provides immediate nucleation and continued growth of preformed fibrils without the need for continuous mixing, and thus results in the absence of a lag time before polymerization starts. Since this assay uses static polymerization conditions, the activity of positive compounds in the nucleation assay can be confirmed in this second assay under different conditions and with an additional probe of amyloid structure.
Samples of the solution are then diluted in thioflavin T (Th-T). The polymer-specific association of Th-T with Aβ produces a fluorescent complex that allows the measurement of the extent of fibril formation (Levine, H. (1993) Protein Science 2:404-410). In particular, association of Th-T with aggregated β-AP, but not monomeric or loosely associated β-AP, gives rise to a new excitation (ex) maximum at 450 nm and an enhanced emission (em) at 482 nm, compared to the 385 nm (ex) and 445 nm (em) for the free dye. Small aliquots of the polymerization mixture contain sufficient fibril to be mixed with Th-T to allow the monitoring of the reaction mixture by repeated sampling. A linear growth curve is observed in the presence of excess monomer. The formation of thioflavin T responsive β-sheet fibrils parallels the increase in turbidity observed using the nucleation assay.
To prepare the stock seed, 1 ml of the Aβ monomer preparation, is incubated for approximately 8 days at 37° C. and sheared sequentially through an 18, 23, 26 and 30 gauge needle 25, 25, 50, and 100 times respectively. 2 μl samples of the sheared material is taken for fluorescence measurements after every 50 passes through the 30 gauge needle until the fluorescence units (FU) plateau (approx. 100-150×). Test compounds are prepared by dissolving an appropriate amount of test compound in 1× PBS to a final concentration of 1 mM (10× stock). If insoluble, the compound is dissolved in 1/10 volume of DMSO and diluted in 1× PBS to 1 mM. A further 1/10 dilution is also prepared to test each candidate at both 100 μM and 10 μM.
To perform the seeded extension assay, each sample is set up with 50 μl of 200 μM monomer, 125 FU sheared seed (a variable quantity dependent on the batch of seed, routinely 3-6 μl) and 10 μl of 10× modulator solution. The sample volume is then adjusted to a final volume of 100 μl with 1× PBS. Two concentrations of each modulator typically are tested: 100 μM and 10 μM, equivalent to a 1:1 and a 1:10 molar ratio of monomer to modulator. The controls include an unseeded reaction to confirm that the fresh monomer contains no seed, and a seeded reaction in the absence of any modulators, as a reference to compare against candidate modulators. The assay is incubated at 37° C. for 6 h, taking 2 μl samples hourly for fluorescence measurements. To measure fluorescence, a 2 μl sample of Aβ is added to 400 μl of Thioflavin-T solution (50 mM Potassium Phosphate […] pH 7.5). The samples are vortexed and the fluorescence is read in a 0.5 ml micro quartz cuvette at EX 450 nm and EM 482 nm (Hitachi 4500 Fluorimeter).
The modulators were evaluated in the nucleation and seeded extension assays described in Example 6 and the results are summarized below in Table V. The change in lag time (ΔLag) is presented as the ratio of the lag time observed in the presence of the test compound to the lag time of the control. […] Inhibition (% Inucl'n) is listed as the percent reduction in the maximum observed turbidity in the control at the end of the assay time period. […]

Numbered stars: 1 amine (or outer) side, 2 acyl side, 3 side chain; on linkers, the order of the positions; unused ones are H or OH. Square brackets hold non-standard residues; d marks the D form. Peptide text beside a SMILES is read from it. * marks the point of attachment. Cholyl = C[C@H](CCC(=O)*)[C@H]1CC[C@H]2[C@@H]3[C@H](O)C[C@@H]4C[C@H](O)CC[C@]4(C)[C@H]3C[C@H](O)[C@]12C; X2 = O=C(C1(O)C[C@H](O)[C@@H](N[*:1])[C@H]([C@H](O)[C@H](O)CO)O1)[*:2]

T1 sequence (P05067 672-711): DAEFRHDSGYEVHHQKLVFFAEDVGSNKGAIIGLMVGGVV

For `CC(=O)N[C@H]1[C@H]([C@H](O)[C@H](O)CO)OC(O)(C(=O)N[C@@H](CCCCN)C(=O)N[C@@H](CC(C)C)C(=O)N[C@H](C(=O)N[C@@H](Cc2ccccc2)C(=O)N[C@@H](Cc2ccccc2)C(=O)O)C(C)C)C[C@@H]1O` (stereo partly shown) [PPI-373] (Ac-[X2]KLVFF-OH), the inhibition at 100 % on Aβ1-40 [1] is 16%. The “% Iext'n (percent reduction of thioflavin-T fluorescence)” value at Aβ1-40 [2] is on record as 8%.

In the case of `CC(C)[C@H](NC(=O)[C@@H](NC(=O)[C@H](CCCCN)NC(=O)CC[C@@H](C)[C@H]1CC[C@H]2[C@@H]3[C@H](O)C[C@@H]4C[C@H](O)CC[C@]4(C)[C@H]3C[C@H](O)[C@]12C)[C@@H](C)O)C(=O)N[C@@H](Cc1ccccc1)C(=O)N[C@@H](Cc1ccccc1)C(=O)O` [PPI-375] (Cholyl-KTVFF-OH), the inhibition at 100 % at Aβ1-40 [1] was found to be 18%. For the same molecule, the “% Iext'n (percent reduction of thioflavin-T fluorescence)” value on Aβ1-40 [2] stood at 21%.

On to `CC(C)C[C@H](NC(=O)CC[C@@H](C)[C@H]1CC[C@H]2[C@@H]3[C@H](O)C[C@@H]4C[C@H](O)CC[C@]4(C)[C@H]3C[C@H](O)[C@]12C)C(=O)N[C@H](C(=O)N[C@@H](Cc1ccccc1)C(=O)N[C@@H](Cc1ccccc1)C(=O)N[C@@H](C)C(=O)N[C@@H](CCC(=O)O)C(=O)O)C(C)C` [PPI-379] (Cholyl-LVFFAE-OH), for which, on Aβ1-40 [1], the inhibition at 100 % was 55%. For the same molecule, at Aβ1-40 [2], the “% Iext'n (percent reduction of thioflavin-T fluorescence)” value is 16%.

For the molecule `CC(C)C[C@H](NC(=O)CC[C@@H](C)[C@H]1CC[C@H]2[C@@H]3[C@H](O)C[C@@H]4C[C@H](O)CC[C@]4(C)[C@H]3C[C@H](O)[C@]12C)C(=O)N[C@H](C(=O)N[C@@H](Cc1ccccc1)C(=O)N[C@@H](Cc1ccccc1)C(=O)O)C(C)C` [PPI-380], the inhibition at 33 % on Aβ1-40 [1] worked out at 72%. Further, the “% Iext'n (percent reduction of thioflavin-T fluorescence)” value at Aβ1-40 [2] turned out to be 51%.

As for `CC(C)C[C@H](NC(=O)CC[C@@H](C)[C@H]1CC[C@H]2[C@@H]3[C@H](O)C[C@@H]4C[C@H](O)CC[C@]4(C)[C@H]3C[C@H](O)[C@]12C)C(=O)N[C@H](C(=O)N[C@@H](Cc1ccccc1)C(=O)N[C@@H](Cc1ccccc1)C(=O)N[C@H](C)C(=O)O)C(C)C` [PPI-381], at Aβ1-40 [1], the inhibition at 100 % is 56%. The “% Iext'n (percent reduction of thioflavin-T fluorescence)” value at Aβ1-40 [2] is 11%.

Take `CC(C)C[C@H](NC(=O)CC[C@@H](C)[C@H]1CC[C@H]2[C@@H]3[C@H](O)C[C@@H]4C[C@H](O)CC[C@]4(C)[C@H]3C[C@H](O)[C@]12C)C(=O)N[C@H](C(=O)N[C@@H](Cc1ccccc1)C(=O)N[C@@H](Cc1ccccc1)C(=O)N[C@@H](C)C(N)=O)C(C)C` [PPI-382]: the inhibition at 100 % at Aβ1-40 [1] was -200%. On Aβ1-40 [2], the “% Iext'n (percent reduction of thioflavin-T fluorescence)” value was determined as 91%.

Consider `CC(C)[C@H](NC(=O)[C@H](C)NC(=O)CC[C@@H](C)[C@H]1CC[C@H]2[C@@H]3[C@H](O)C[C@@H]4C[C@H](O)CC[C@]4(C)[C@H]3C[C@H](O)[C@]12C)C(=O)N[C@@H](Cc1ccccc1)C(=O)N[C@@H](Cc1ccccc1)C(=O)N[C@@H](C)C(=O)O` [PPI-388] (Cholyl-AVFFA-OH), for which the inhibition at 100 % on Aβ1-40 [1] turned out to be 68%. For the same molecule, the “% Iext'n (percent reduction of thioflavin-T fluorescence)” value on Aβ1-40 [2] is on record as 44%.

Take `CC(C)C[C@H](NC(=O)CC[C@@H](C)[C@H]1CC[C@H]2[C@@H]3[C@H](O)C[C@@H]4C[C@H](O)CC[C@]4(C)[C@H]3C[C@H](O)[C@]12C)C(=O)N[C@@H](C)C(=O)N[C@@H](Cc1ccccc1)C(=O)N[C@@H](Cc1ccccc1)C(=O)N[C@@H](C)C(=O)O` [PPI-389] (Cholyl-LAFFA-OH): the inhibition at 100 % on Aβ1-40 [1] was determined as 47%. For the same molecule, the “% Iext'n (percent reduction of thioflavin-T fluorescence)” value on Aβ1-40 [2] is recorded as 66%.

`CC(C)C[C@H](NC(=O)CC[C@@H](C)[C@H]1CC[C@H]2[C@@H]3[C@H](O)C[C@@H]4C[C@H](O)CC[C@]4(C)[C@H]3C[C@H](O)[C@]12C)C(=O)N[C@H](C(=O)N[C@@H](C)C(=O)N[C@@H](Cc1ccccc1)C(=O)N[C@@H](C)C(=O)O)C(C)C` [PPI-390] (Cholyl-LVAFA-OH): the inhibition at 100 % on Aβ1-40 [1] was 25%. The “% Iext'n (percent reduction of thioflavin-T fluorescence)” value at Aβ1-40 [2] was found to be 0%.

As to `CC(C)[C@H](NC(=O)CC[C@@H](C)[C@H]1CC[C@H]2[C@@H]3[C@H](O)C[C@@H]4C[C@H](O)CC[C@]4(C)[C@H]3C[C@H](O)[C@]12C)C(=O)N[C@@H](Cc1ccccc1)C(=O)N[C@@H](Cc1ccccc1)C(=O)N[C@@H](C)C(=O)O` [PPI-392] (Cholyl-VFFA-OH), at Aβ1-40 [1], the inhibition at 100 % was determined as 76%. The “% Iext'n (percent reduction of thioflavin-T fluorescence)” value on Aβ1-40 [2] is 10%.

As to `CC(C)C[C@H](NC(=O)CC[C@@H](C)[C@H]1CC[C@H]2[C@@H]3[C@H](O)C[C@@H]4C[C@H](O)CC[C@]4(C)[C@H]3C[C@H](O)[C@]12C)C(=O)N[C@H](C(=O)N[C@@H](Cc1ccccc1)C(=O)O)C(C)C` [PPI-393], at Aβ1-40 [1], the inhibition at 100 % turned out to be 1%. Besides, the “% Iext'n (percent reduction of thioflavin-T fluorescence)” value at Aβ1-40 [2] is on record as 0%.

`CC(C)[C@H](NC(=O)CC[C@@H](C)[C@H]1CC[C@H]2[C@@H]3[C@H](O)C[C@@H]4C[C@H](O)CC[C@]4(C)[C@H]3C[C@H](O)[C@]12C)C(=O)N[C@@H](Cc1ccccc1)C(=O)N[C@@H](Cc1ccccc1)C(=O)O` [PPI-394]: on Aβ1-40 [1], the inhibition at 100 % is 55%. In addition, the “% Iext'n (percent reduction of thioflavin-T fluorescence)” value at Aβ1-40 [2] stood at 0%.

Consider `C[C@H](NC(=O)[C@H](Cc1ccccc1)NC(=O)[C@H](Cc1ccccc1)NC(=O)CC[C@@H](C)[C@H]1CC[C@H]2[C@@H]3[C@H](O)C[C@@H]4C[C@H](O)CC[C@]4(C)[C@H]3C[C@H](O)[C@]12C)C(=O)O` [PPI-395], for which the inhibition at 100 % on Aβ1-40 [1] worked out at 51%. Also, the “% Iext'n (percent reduction of thioflavin-T fluorescence)” value at Aβ1-40 [2] is listed as 6%.

With `CC(C)C[C@H](NC(=O)CC[C@@H](C)[C@H]1CC[C@H]2[C@@H]3[C@H](O)C[C@@H]4C[C@H](O)CC[C@]4(C)[C@H]3C[C@H](O)[C@]12C)C(=O)N[C@H](C(=O)N[C@@H](Cc1ccccc1)C(=O)N[C@@H](Cc1ccccc1)C(=O)N[C@@H](CCCCN)C(=O)O)C(C)C` [PPI-407] (Cholyl-LVFFK-OH), on Aβ1-40 [1], the inhibition at 33 % amounted to 100%. In addition, at Aβ1-40 [2], the “% Iext'n (percent reduction of thioflavin-T fluorescence)” value was found to be 85%.

As to `CC(C)C[C@H](NC(=O)[C@@H](NC(=O)[C@H](Cc1ccccc1)NC(=O)[C@H](Cc1ccccc1)NC(=O)CC[C@@H](C)[C@H]1CC[C@H]2[C@@H]3[C@H](O)C[C@@H]4C[C@H](O)CC[C@]4(C)[C@H]3C[C@H](O)[C@]12C)C(C)C)C(=O)N[C@@H](C)C(=O)O` [PPI-426] (Cholyl-FFVLA-OH), at Aβ1-40 [1], the inhibition at 100 % is 100%. The “% Iext'n (percent reduction of thioflavin-T fluorescence)” value on Aβ1-40 [2] is given as 89%.

`CC(C)[C@H](NC(=O)[C@H](Cc1ccccc1)NC(=O)[C@H](Cc1ccccc1)NC(=O)CC[C@@H](C)[C@H]1CC[C@H]2[C@@H]3[C@H](O)C[C@@H]4C[C@H](O)CC[C@]4(C)[C@H]3C[C@H](O)[C@]12C)C(=O)O` [PPI-429]: the inhibition at 100 % at Aβ1-40 [1] is -33%. At Aβ1-40 [2], the “% Iext'n (percent reduction of thioflavin-T fluorescence)” value was determined as 7%.

Regarding `CC(C)C[C@H](NC(=O)[C@@H](NC(=O)[C@H](Cc1ccccc1)NC(=O)[C@H](Cc1ccccc1)NC(=O)CC[C@@H](C)[C@H]1CC[C@H]2[C@@H]3[C@H](O)C[C@@H]4C[C@H](O)CC[C@]4(C)[C@H]3C[C@H](O)[C@]12C)C(C)C)C(=O)O` [PPI-430] (Cholyl-FFVL-OH), the inhibition at 100 % at Aβ1-40 [1] stood at 33%. Besides, the “% Iext'n (percent reduction of thioflavin-T fluorescence)” value at Aβ1-40 [2] was 75%.

For the origin of these results see patent US5854204A, “Aβ peptides that modulate β-amyloid aggregation” (priority 1996, dated 1998).
